Data from patent US7455861B2, “Angelicae sinensis extracts useful for treatment of cancers” (priority 2004, dated 2008).
pIC50: −log10 of the molar value. Read-outs that look alike come from different tables or passages of the source.

How the values were obtained:
DBTRG-05MG = assay: Cytotoxicity (IC50) on DBTRG-05MG; type: cell-based; settings: Homo sapiens
Protocol: Human tumor cell lines (MCF-7, CL1-5, HT-29, Caco-2), human umbilical vascular endothelial cells (HUVEC), and human dermal fibroblasts (HDF) were tested for sensitivity on Angelicae sinensis extracts, ligustilide, n-butylidenephthalide and its derivatives in vitro. The DBTRG-05MG, BCM, HL-60 and J5 cells were grown in RPMI-1640 medium containing 10% fetal calf serum and 100 ng/ml penicillin and […] streptomycin at 37° C. in a humidified atmosphere with 5% CO2. The G5T/VGH, RG2, Ni 8, SVEC and Balb/3T3 cells were cultured in DMEM with 10% fetal calf serum and 100 ng/ml penicillin and […] streptomycin at 37° C. in 5% CO2. Mycoplasma infection of the culture cells was excluded by PCR screening methods before each experiment.
The effects on cell viability after the treatments with different concentrations of the Angelicae sinensis extracts or the active components purified therefrom were evaluated by modified MTT assay in triplicate. Briefly, the cells (5×10^3) were incubated into 96-well plates containing 100 μl of a growth medium. The cells were permitted to adhere for 24 hours, then treated with 100 μl of the herbal extracts or the active components dissolved in the medium. The control contained DMSO of <0.02% (v/v). After 24, 48 and 72 h incubation, the drug-containing medium was replaced by 50 μl of fresh medium, and cells in each well were incubated in 50 μl of 400 μg/ml MTT for 6-8 h. The medium and MTT were removed later and 100 μl of DMSO was added to each well and to the control, to dissolve the soluble components. Absorbance at 550 nm of the solutions was measured with MRX Microtiter Plate Luminometer (DYNEX, USA). The absorbance of untreated cells was considered as 100%. To evaluate the effects of the extracts or the active components on cell growth rate of GBM cells, 5×10^3 exponentially growing cells were treated with different concentrations for 24, 48, or 72 h. The cytotoxicity of each test substance was determined as an IC50 value, which represents the drug concentration required to cause 50% inhibition. […]

A549 = assay: Cytotoxicity (IC50) on A549; type: cell-based; settings: Homo sapiens
Protocol: The effects on cell viability after the treatments with different concentrations of the Angelicae sinensis extracts or the active components purified therefrom were evaluated by modified MTT assay in triplicate. Briefly, the cells (5×10^3) were incubated into 96-well plates containing 100 μl of a growth medium. The cells were permitted to adhere for 24 hours, then treated with 100 μl of the herbal extracts or the active components dissolved in the medium. The control contained DMSO of <0.02% (v/v). After 24, 48 and 72 h incubation, the drug-containing medium was replaced by 50 μl of fresh medium, and cells in each well were incubated in 50 μl of 400 μg/ml MTT for 6-8 h. The medium and MTT were removed later and 100 μl of DMSO was added to each well and to the control, to dissolve the soluble components. Absorbance at 550 nm of the solutions was measured with MRX Microtiter Plate Luminometer (DYNEX, USA). The absorbance of untreated cells was considered as 100%. To evaluate the effects of the extracts or the active components on cell growth rate of GBM cells, 5×10^3 exponentially growing cells were treated with different concentrations for 24, 48, or 72 h. The cytotoxicity of each test substance was determined as an IC50 value, which represents the drug concentration required to cause 50% inhibition. All experiments in this study were performed in triplicate.

RG2 cells = assay: In situ (intra-cranial) RG2 GBM tumor in rats, MRI tumor volume; type: in vivo, F344 rats; settings: BP 300 mg/kg/day s.c. day 4-8, i.c. RG2
Protocol: The RG2 cells (rat GBM) and DBTRG-05MG cells (human GBM) were used in animal experiments to monitor the anti-tumor activities of AS-C and BP. Male F344 rat (230-260 g) and male Foxn1 nu/nu mice (10-12 weeks) were obtained from National Laboratory Animal Center (Taipei, Taiwan). All procedures were performed in compliance with the Standard Operation Procedures of the Laboratory Animal Center of Tzu Chi University (Hualien, Taiwan). Animals were kept under pathogen-free conditions and fed a standard laboratory diet. The DBTRG-05MG cells (human GBM) and RG2 cells (rat GBM) were prepared for nude mice xenografts and rat allogenics, respectively.
The cytotoxic effect of AS-C on in situ tumor was determined with RG2 cells. […] Tumor volumes were measured and calculated by 3-T unit MRI (General Electric, Wisconsin, USA) with echo-planar imaging capability (Signa LX 3.8, General Electric, Wisconsin, USA) in Buddhist Tzu Chi General Hospital (Hualien, Taiwan). […]
The rats in two groups (6/group) were implanted i.c. (striatum) with 5×10^4 RG2 cells, and randomly treated with BP (300 mg/kg/day) or vehicle s.c. in the hind flank region after tumor cell implantation at day 4, 5, 6, 7 and 8 for five dosages. Tumor volume was measured and calculated by MRI. […] Finally, the whole tumor sizes (mm^3) were measured and calculated for each group.

HUVEC = assay: Tube formation of HUVEC; type: cell-based, human
ETS-1 = assay: RT-PCR of ETS-1 in HUVEC; type: cell-based, human

SMILES: CCCC=C1OC(=O)c2ccccc21 [BP, n-Butylidenephthalide]
- IC50 (DBTRG-05MG; Table 2, read-out: Cytotoxicity (IC50) DBTRG-05MG): 7 to 10 µg/mL
- pIC50 (DBTRG-05MG; Table 2, value in parentheses, read-out: Cytotoxicity (IC50) DBTRG-05MG): 4.27 to 4.43
- IC50 (A549; Table 2): 8 to 12 µg/mL
- pIC50 (A549; Table 2, value in parentheses): 4.20 to 4.37
- mean tumor volume at day 14 (MRI) (RG2 cells): 46.6±1.8 mm^3
- mean tumor volume at day 16 (MRI) (RG2 cells): 91.68±8.3 mm^3
- Inhibition Tube Formation (HUVEC): 531.3 µg/mL
- Inhibition Tube Formation (HUVEC; value in parentheses): (2826 μM)
- Inhibition RT-PCR ETS-1 (ETS-1): 53.13 µg/mL
- Inhibition RT-PCR ETS-1 (ETS-1; value in parentheses): (282.6 μM)
